The values that follow are results of earlier work, collected in publication PMC7700871 (ACS chemical biology, 2020).

The target in this data set is Abl-1 (Homo sapiens, UniProt P00519). Particulars: cited from earlier work.
Sequence of Abl-1 (P00519 whole entry, species assumed): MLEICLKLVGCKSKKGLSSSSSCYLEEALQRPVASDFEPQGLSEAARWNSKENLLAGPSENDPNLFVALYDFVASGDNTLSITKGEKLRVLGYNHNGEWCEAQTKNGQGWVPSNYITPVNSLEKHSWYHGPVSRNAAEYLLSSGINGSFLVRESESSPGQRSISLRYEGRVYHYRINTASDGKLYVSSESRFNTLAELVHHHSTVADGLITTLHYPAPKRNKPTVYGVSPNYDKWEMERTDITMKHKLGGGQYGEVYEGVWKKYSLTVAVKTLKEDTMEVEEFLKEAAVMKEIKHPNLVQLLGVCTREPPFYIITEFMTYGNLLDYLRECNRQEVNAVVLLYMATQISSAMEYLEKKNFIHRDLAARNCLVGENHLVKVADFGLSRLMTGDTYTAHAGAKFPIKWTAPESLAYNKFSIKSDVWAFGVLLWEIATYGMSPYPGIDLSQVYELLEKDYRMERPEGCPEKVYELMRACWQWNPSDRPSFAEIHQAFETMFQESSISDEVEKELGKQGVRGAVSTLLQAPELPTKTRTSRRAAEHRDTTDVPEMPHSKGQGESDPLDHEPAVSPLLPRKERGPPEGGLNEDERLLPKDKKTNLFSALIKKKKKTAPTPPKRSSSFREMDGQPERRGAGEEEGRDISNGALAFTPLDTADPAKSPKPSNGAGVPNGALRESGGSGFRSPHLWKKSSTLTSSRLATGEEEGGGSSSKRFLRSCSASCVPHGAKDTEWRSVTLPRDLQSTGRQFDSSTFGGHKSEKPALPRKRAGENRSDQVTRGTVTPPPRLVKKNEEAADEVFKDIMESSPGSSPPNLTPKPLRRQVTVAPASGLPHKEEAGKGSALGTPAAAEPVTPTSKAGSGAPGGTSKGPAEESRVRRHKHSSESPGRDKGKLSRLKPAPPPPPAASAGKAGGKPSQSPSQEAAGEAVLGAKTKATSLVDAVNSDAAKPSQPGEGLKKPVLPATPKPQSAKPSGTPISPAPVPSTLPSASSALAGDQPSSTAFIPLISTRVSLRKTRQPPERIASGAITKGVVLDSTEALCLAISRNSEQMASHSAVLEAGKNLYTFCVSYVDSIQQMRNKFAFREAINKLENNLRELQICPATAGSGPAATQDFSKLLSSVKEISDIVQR

For `Cc1ccc(NC(=O)c2ccc(CN3CC[C@H](N(C)C)C3)c(C(F)(F)F)c2)cc1Nc1nccc(-c2cncnc2)n1` [bafetinib], the “global conformation of Abl-1's SH3-SH2-CD module” value was “promote an open global conformation”.
